Data from patent publication EP4702986A1, “POLYPEPTIDE AND USE THEREOF” (Biocells (Beijing) Biotech Co., Ltd., priority 2023, dated 2024).
“Also recorded” adds a separate entry of the source. Numbered stars: 1 amine (or outer) side, 2 acyl side, 3 side chain; on linkers, the order of the positions; unused ones are H or OH. Side chains are listed from the residue outwards. Peptide text beside a SMILES is read from it. * marks the point of attachment. C18 diacid = O=C(O)CCCCCCCCCCCCCCCCC(=O)*; γGlu = O=C(O)[C@H](CCC(=O)[*:2])N[*:1]; Fumaroyl = O=C(O)/C=C/C(=O)*; Lauroyl = CCCCCCCCCCCC(=O)*; AEEA = NCCOCCOCC(=O)O

Legend:
male SD rats = assay: in vivo; details: for Observations of Animal Status: one animal per row, observed 24 hours
Description: (§1) In an experiment about acute toxicity of intravenous administration, male SD rats weighing 200-230 g were dosed in a range between 480 µg/Kg and 30 µg/Kg via tail vein injection in a descending order of dosage. […] Toxic response and mortality of the rats were preliminarily observed, and time of death and doses without mortality of the rats were recorded. The level of acute toxicity of the polypeptides was preliminarily determined based on the doses without mortality.

in vivo = details: male, SD, rat, in vivo, iv
Description: as §1

[1] = Determination of half-lives of polypeptides (plasma, LC-MS); details: for half-life: C57 BL/6, mouse, plasma, iv
human ETA receptor = biological target: T1, human ETA receptor (Homo sapiens, UniProt P25101); assay: Selectivity of polypeptides on human ETA receptor (IP-One Gq kit, % of positive control ET1); format: cell-based; details: read-out: hETAR agonist activity, percentage of activity relative to ET1
T1 construct: expressed in transfected cells; host or cells: 293T-17 cells, transient transfection
T1 sequence (P25101 21-427): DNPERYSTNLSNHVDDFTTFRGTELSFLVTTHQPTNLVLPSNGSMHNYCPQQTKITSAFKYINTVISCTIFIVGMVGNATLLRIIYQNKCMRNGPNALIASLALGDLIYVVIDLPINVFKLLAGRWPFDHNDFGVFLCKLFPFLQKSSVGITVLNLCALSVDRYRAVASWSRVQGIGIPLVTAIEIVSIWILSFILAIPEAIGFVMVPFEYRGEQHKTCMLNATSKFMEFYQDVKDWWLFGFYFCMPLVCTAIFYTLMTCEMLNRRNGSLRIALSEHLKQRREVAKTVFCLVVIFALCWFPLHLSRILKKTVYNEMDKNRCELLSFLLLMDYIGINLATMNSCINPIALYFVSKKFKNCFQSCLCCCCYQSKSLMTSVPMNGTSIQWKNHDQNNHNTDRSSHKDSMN
Outline: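 293T-17 cells transiently transfected with human ETA receptor (48 h), 30,000 cells/well exposed to polypeptides for 1 h at 37°C; IP1 accumulation by HTRF (665/620 nm ratio). Activity given as % of ET1 at the same concentration after PBS-control subtraction.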

[2] = intravenous (tail vein) 120 µg/Kg
[3] = intravenous (tail vein) 240 µg/Kg
[4] = intravenous (tail vein) 480 µg/Kg

SMILES | Observations of Animal Status (male SD rats; [2]) | Observations of Animal Status (male SD rats; [3]) | Observations of Animal Status (male SD rats; intravenous (tail vein) 360 µg/Kg) | Observations of Animal Status (male SD rats; [4]) | MTD at 24 h (in vivo) [mg/kg] | acute toxicity of intravenous administration (comparison among polypeptides) (male SD rats; male SD rats, tail vein injection) | half-life [1] [min] | AUClast 0-30 min ([1]; C57 BL/6 mice, i.v., dosage per compound 0.48, 0.96 or 1 mpk) [ng·h/mL] | activation at 10 µM (human ETA receptor) [%] | activation at 100 µM (human ETA receptor) [%] | Observations of Animal Status (male SD rats; intravenous (tail vein) 30 µg/Kg) | Observations of Animal Status (male SD rats; intravenous (tail vein) 60 µg/Kg)
CC[C@H](C)[C@H](NC(=O)[C@H](CC(=O)O)NC(=O)[C@H](CC(C)C)NC(=O)[C@H](Cc1c[nH]cn1)NC(=O)[C@H](C)NC(=O)[C@H](Cc1ccccc1)NC(=O)[C@H](Cc1ccc(O)cc1)NC(=O)[C@@H](NC(=O)[C@H](C)NC(=O)[C@H](CCC(=O)O)NC(=O)[C@H](CCC(=O)O)NC(=O)[C@H](CC(=O)O)NC(=O)[C@H](CC(=O)O)NC(=O)COCCOCCNC(=O)COCCOCCNC(=O)CC[C@H](NC(=O)CCCCCCCCCCCCCCCCC(=O)O)C(=O)O)C(C)C)C(=O)N[C@H](C(=O)N[C@@H](Cc1c[nH]c2ccccc12)C(=O)O)[C@@H](C)CC [BX-255] ({C18 diacid-γGlu-AEEA-AEEA}-DDEEAVYFAHLDIIW-OH) | No obvious adverse reactions in the first 1 hour; breathing became slightly faster at nearly 2 hours; was in good condition and recovered when observed the next day; also recorded: Showed no willingness to move at 9 minutes; recovered at 1 hour and 10 minutes; also recorded: Lay still and showed no willingness to move at 12 minutes; became active at 17 minutes; signs of pain were observed in the animal through pupil observation; no pain at 28 minutes; also recorded: Developed difficulty in breathing at 17 minutes, recovered to normal in about 10 seconds; signs of pain were observed in the animal through pupil observation; no pain at 28 minutes | No obvious reaction in the first 27 minutes after administration; breathing speeded up at 27 minutes; died at 49 minutes after administration; also recorded: No obvious reaction in the first 24 minutes after administration; breathing speeded up at 27 minutes; died at 43 minutes after administration | The body turned purple at 12 minutes after administration; died at 22 minutes after administration | The body turned purple at 23 minutes after administration; died at 29 minutes after administration | 0.12 | – | – | – | – | – | – | –
CC[C@H](C)[C@H](NC(=O)[C@H](CC(=O)O)NC(=O)[C@H](CC(C)C)NC(=O)[C@H](Cc1c[nH]cn1)NC(=O)[C@H](C)NC(=O)[C@H](Cc1ccccc1)NC(=O)[C@H](Cc1ccc(O)cc1)NC(=O)[C@@H](NC(=O)[C@H](C)NC(=O)[C@H](CCC(=O)O)NC(=O)[C@H](CCC(=O)O)NC(=O)[C@H](CCCCNC(=O)COCCOCCNC(=O)COCCOCCNC(=O)CC[C@H](NC(=O)CCCCCCCCCCCCCCCCC(=O)O)C(=O)O)NC(=O)/C=C/C(=O)O)C(C)C)C(=O)N[C@H](C(=O)N[C@@H](Cc1c[nH]c2ccccc12)C(=O)O)[C@@H](C)CC [BX-253] (Fumaroyl-K([AEEA-AEEA-γGlu-C18 diacid])EEAVYFAHLDIIW-OH) | – | No abnormalities | – | No abnormalities | 0.48 | lowest acute toxicity | 63 | 3989 | -12.9 | -9.03 | – | –
CCCCCCCCCCCC(=O)N[C@@H](CCC(=O)O)C(=O)NCCOCCOCC(=O)NCCCC[C@H](NC(=O)[C@H](Cc1c[nH]cn1)NC(=O)[C@H](C)NC(=O)[C@H](Cc1ccccc1)NC(=O)[C@H](Cc1ccc(O)cc1)NC(=O)[C@@H](NC(=O)[C@H](C)NC(=O)[C@H](CCC(=O)O)NC(=O)[C@H](CCC(=O)O)NC(=O)[C@H](CC(=O)O)NC(=O)/C=C/C(=O)O)C(C)C)C(=O)N[C@@H](CC(=O)O)C(=O)N[C@H](C(=O)N[C@H](C(=O)N[C@@H](Cc1c[nH]c2ccccc12)C(=O)O)[C@@H](C)CC)C(C)C [BX-238] (Fumaroyl-DEEAVYFAHK([AEEA-Glu-Lauroyl])DVIW-OH) | Developed rapid breathing at 5 minutes, the eyes turned pale and purple at 14 minutes; died at 16 minutes | Developed abdominal breathing at 5-6 minutes, developed rapid breathing and collapsed at 9 minutes; died at 11 minutes | – | – | 0.03 | – | 53 | – | -4.74 | -5.07 | Breathing speeded up at 53 minutes, showed no willingness to move at 1.2 hours; found dead the next morning (estimated to have died during the night); also recorded: Breathing speeded up at 50 minutes, showed no willingness to move at 1.2 hours; found dead the next morning (estimated to have died during the night) | Developed rapid breathing at 40-45 minutes; died at 1 hour
